Here are results for 12 compounds from patent US12195424B2, “Antibiotic compounds” (The General Hospital Corporation, priority 2017, dated 2025).

For orientation: MIC means the lowest concentration found to suppress growth.

Values after ≈ are worked out from the molar mass of the structure shown. Where two headings read alike, the source gives them in different places.

The conditions of series [1]: in words; cited from earlier work.
Series [2] relates to S. aureus strain MW2. Nature of the series: Minimal inhibitory concentration (MIC) assay. Conditions: for MIC: growing MRSA MW2 cells; for fold decrease in antimicrobial activity (fold higher MIC) vs. parent compound CD437: relative to CD437; for antimicrobial activity: S. aureus MW2, in words. The class given is cell-based. The source says:
Bacterial strains, growth conditions and persister isolation. Methicillin-resistant S. aureus (MRSA) strain MW2 BAA-1707, the VanA-type vancomycin-resistant S. aureus strain VRS1, 11 clinical S. aureus isolates 8 clinical Enterococcus faecium isolates (including VanB-type VRE isolates, C68 and WB312, and a VanA-type VRE isolate WC196), Klebsiella pneumoniae WGLW2 (BEI Resources, Manassas, VA, USA), Acinetobacter baumannii ATCC 17978, Pseudomonas aeruginosa PA14, and Enterobacter aerogenes ATCC 13048 were used to test antimicrobial activity. S. aureus and E. faecium strains were grown in tryptic soy broth (TSB) (BD, Franklin Lakes, NJ, USA) or brain-heart infusion (BHI) broth (BD, Franklin Lakes, NJ, USA), respectively at 37° C. K. pneumoniae, A. baumannii, P aeruginosa, and E. aerogenes were grown in Luria Bertani (LB) broth (BD, Franklin Lakes, NJ, USA).
(§1) Minimal inhibitory concentration (MIC) assay. The MICs of antibiotics were determined by the standard micro-dilution method recommended by the Clinical and Laboratory Standards Institute. The assay was conducted in triplicate.

The test system of series [3] is Cutibacterium (Propionibacterium) acnes. Description: Morphology of treated P. acnes bacteria. The class given is cell-based. Conditions: in words (FIG. 13).
Series [4] has the same test system. Nature of the series: Growth inhibition / MIC against P. acnes. The class given is cell-based. Conditions: in words (FIG. 11). Here is the method: as §1
More specifically, uptake of SYTOX Green by Cutibacterium (Propionibacterium) acnes cells treated with retinoids CD437 and Analog 2 increased, indicating higher permeability (FIG. 12; individual data points (n=3 biologically independent samples) and means are shown).

Series [5] deals with rat primary hepatocytes. Description: Hepatotoxicity in primary hepatocytes. The class given is cell-based. Conditions: 24 h, compared with CD437, in words. Here is the method:
Cytotoxicity. Cryopreserved rat and human primary hepatocytes were purchased from the Cell Resource Core at Massachusetts General Hospital (Boston, MA, USA). The hepatocytes were cultured in a collagen sandwiched configuration in 24-well plates, as described previously. Briefly, 4×10^5 live cells were seeded in 24-well plates coated with rat tail collagen type I. Plates were incubated in a humidified 5% CO2 incubator at 37° C. for 4 h to allow cells to attach to the collagen gel. The cells were washed and then cultured in 0.5 ml standard hepatocyte culture medium consisting of pre-warmed Dulbecco's modified Eagle's medium (DMEM) media supplemented with 10% FBS, 0.5 U/ml insulin, 14 ng/ml glucagon, 20 ng/ml EGF, 7.5 μg/ml hydrocortisone and 200 U/ml penicillin-streptomycin. The cell cultures were incubated in a humidified 5% CO2 incubator at 37° C. At 24 h after seeding the cells, a top layer of collagen gel was deposited on the hepatocytes attached to the bottom collagen layer and incubated for additional 24 h. For cytotoxicity tests, HepG2, RPTEC, and NHEK were cultured at 70-80% confluence in tissue culture treated 96-well plates in a volume of 100 μl/well corresponding culture media. […] WST-1 reduction was measured at 450 nm. The percent fluorescence relative to that of the no-treatment control was calculated. […]

Series [6] deals with human erythrocytes. Nature of the series: Human blood hemolysis. The class given is cell-based. Conditions: compared with CD437, in words. As for the experimental part:
Human blood hemolysis. Hemolytic activity of retinoids on human erythrocytes was evaluated using a previously described method with modifications. 10% human erythrocytes were purchased from Rockland Immunochemicals (Limerick, PA, USA). The erythrocytes were diluted to 4% with PBS, and 100 μl was added to 100 μl of two-fold serial dilutions of compounds in PBS, 0.2% DMSO (negative control), or 2% Triton-X 100 (positive control) in a 96-well plate. The plate was incubated at 37° C. for 1 h and then centrifuged at 500×g for 5 min. 100 μl of the supernatant was transferred to a fresh 96-well plate and absorbance of supernatants was measured at 540 nm. Percent hemolysis was calculated using the following equation: (A540 nm of compound treated sample−A540 nm of 0.1% DMSO treated sample)/(A540 nm of 1% Triton X-100 treated sample−A540 nm of 0.1% DMSO treated sample)×100. HC50 (concentration of compound causing 50% hemolysis) was determined using SigmaPlot 10.0 (Systat Software Inc., San Jose, CA, USA).

In series [7] the test system is MRSA MW2 persisters. Nature of the series: Persister killing assay. The class given is cell-based, S. aureus. Conditions: Staphylococcus aureus; MRSA MW2 persisters; read-out: MIC against MRSA persisters. As for the experimental part:
Persister killing assay. […] Persistency of stationary-phase S. aureus VRS1 was evaluated by treating with 100×MIC daptomycin and 100×MIC linezolid, because the strain is resistant to vancomycin, gentamicin, ciprofloxacin, and rifampicin. We prepared persister cells of the 13 S. aureus strains by growing cultures overnight to stationary phase at 37° C. at 225 rpm. The overnight cultures were washed three times with PBS and diluted to ˜5×10^7 ? CFU/ml with the same buffer. 2 ml of the persister suspension containing appropriate concentrations of antibiotics was added to the wells of a 96-well assay block (Corning Costar 3960) and incubated at 37° C., with shaking at 225 rpm. At specific times, 400 μl samples were removed and washed once with PBS to remove the antibiotic. The samples were serially diluted 10^5 fold with PBS and spot-plated onto TSA plates. After incubating the plates overnight (˜18 h) at 37° C., the colonies were counted to enumerate the number of cells. These experiments were conducted in triplicate.

The nature of series [8]: Maximum tolerated dose. Conditions: mice, every 12 h for 3 days; Analog 2 10-80 mg/kg i.p., vancomycin 25 mg/kg i.p.; P>0.7. The format is in vivo. As for the experimental part: Maximum tolerated dose. Six-week-old female CD1 ICR outbred mice (20-25 g) were obtained from Charles River Laboratories (Wilmington, MA, USA). Analog 2 was dissolved in a 1:1 solution of Kolliphor EL (Sigma-Aldrich, St Louis, MO, USA) and ethanol and then diluted 1:10 in saline to a final concentration of 4 mg/ml. Groups of mice (n=6) were treated with 10, 20, 40, 80 mg/kg Analog 2 i.p. or vancomycin (25 mg/kg) every 12 h for 3 days. Control mice were injected with 400 μl of 10% Kolliphor EL/ethanol in saline i.p. every 12 h for 3 days. Mice were closely monitored until they were euthanized at 72 h from the first infection. After euthanizing mice, blood was collected by cardiac puncture. All samples were stored at 4° C. until for analysis. Serum was analyzed for alanine aminotransferase and urea nitrogen content with commercially available kits, following the manufacturer's protocol (Pointe Scientific, Canton, MI, USA). No statistical methods were used to predetermine samples size. The experiments were not randomized, and investigators were not blinded to allocation during experiments and outcome assessment. This study and all experimental protocols were approved by the Rhode Island Hospital Institutional Animal Care and Use Committee (RIH IACUC) and conducted in accordance with the Animal Welfare Act and National Institutes of Health guidelines for animal care and use. Statistical significance among each group was analyzed by one-way ANOVA with post-hoc Tukey test using PASW Statistics 18 (SPSS Inc. Chicago, IL, USA) and GraphPad Prism 7 (GraphPad Software, La Jolla, CA, USA).

The mark [9] stands for this setting: Staphylococcus aureus, read-out: MIC.

Take `O=C(O)/C=C/c1ccc(-c2ccc(O)c(C34CC5CC(CC(C5)C3)C4)c2)cc1` [adarotene]: the excretion entry in series [1] is given as “excreted rapidly”. Take `O=C(O)c1cc(O)c2cc(-c3cc(C45CC6CC(CC(C6)C4)C5)ccc3O)cc(O)c2c1` [Analog 16, 6-(5-(adamantan-1-yl)-2-hydroxyphenyl)-4,8-dihydroxy-2-naphthoic acid]: in series [2] (setting [9]), the MIC came out at 8 µg/mL (≈ 18.6 µM). Regarding `O=C(O)c1ccc2cc(-c3ccc(O)c(C45CC6CC(CC(C6)C4)C5)c3)ccc2c1` [CD437, reference compound], the minimum inhibitory concentration (MIC) in series [2] turned out to be 1 µg/mL (≈ 2.51 µM). The morphology of bacteria result in series [3] was “altered and elongated”. Further, the growth inhibition result in series [4] is reported as “inhibit the growth”. For the compound `O=C(O)c1cc(O)c2cc(-c3ccc(O)c(C45CC6CC(CC(C6)C4)C5)c3)ccc2c1` [Analog 11, 6-(3-(adamantan-1-yl)-4-hydroxyphenyl)-4-hydroxy-2-naphthoic acid], in series [2] (MRSA MW2), the “fold decrease in antimicrobial activity (fold higher MIC) vs. parent compound CD437” value is 4 fold. Also, the MIC in series [2] (setting [9]) amounted to 4 µg/mL (≈ 9.65 µM).

For the compound `NC(=O)c1ccc2cc(-c3ccc(O)c(C45CC6CC(CC(C6)C4)C5)c3)ccc2c1` [Analog 3, 6-(3-(adamantan-1-yl)-4-hydroxyphenyl)-2-naphthamide], the antimicrobial activity result in series [2] was “comparatively low”.

As to `O=C(O)c1ccc2cc(-c3ccc(O)c(Cc4ccccc4)c3)ccc2c1` [Analog 9, 6-(3-benzyl-4-hydroxyphenyl)-2-naphthoic acid], in series [5], the hepatotoxicity result is “similar”. In addition, in series [6], the hemolytic activity result is given as “similar”. Moreover, the MIC in series [7] amounted to 16 µg/mL (≈ 45.1 µM); in series [2] (setting [9]), 2 µg/mL (≈ 5.64 µM). Moreover, the “fold decrease in antimicrobial activity (fold higher MIC) vs. parent compound CD437” value in series [2] (MRSA MW2) worked out at 2 fold. For `O=C(O)c1ccc2cc(-c3cc(C45CC6CC(CC(C6)C4)C5)ccc3O)ccc2c1` [Analog 10, 6-(5-(adamantan-1-yl)-2-hydroxyphenyl)-2-naphthoic acid], the “fold decrease in antimicrobial activity (fold higher MIC) vs. parent compound CD437” value in series [2] (MRSA MW2) is above 30 fold. The MIC in series [2] (setting [9]) was determined as 32 µg/mL (≈ 80.3 µM). For `O=C(O)c1cc(O)c2cc(-c3ccc(O)c(C45CC6CC(CC(C6)C4)C5)c3)cc(O)c2c1` [Analog 14, 6-(3-(adamantan-1-yl)-4-hydroxyphenyl)-4,8-dihydroxy-2-naphthoic acid], in series [2] (MRSA MW2, another decrease relative to Analog 11), the “fold decrease in antimicrobial activity vs. Analog 11” value is 4 fold. For the same compound, in series [2] (setting [9]), the MIC turned out to be 16 µg/mL (≈ 37.2 µM).

On to `CN[C@H](CC(C)C)C(=O)N[C@H]1C(=O)N[C@@H](CC(N)=O)C(=O)N[C@H]2C(=O)N[C@H]3C(=O)N[C@H](C(=O)N[C@H](C(=O)O)c4cc(O)cc(O)c4-c4cc3ccc4O)[C@H](O)c3ccc(c(Cl)c3)Oc3cc2cc(c3O[C@@H]2O[C@H](CO)[C@@H](O)[C@H](O)[C@H]2O[C@H]2C[C@](C)(N)[C@H](O)[C@H](C)O2)Oc2ccc(cc2Cl)[C@H]1O` [vancomycin, reference compound], for which, in series [8], the “alanine aminotransferase (ALT) vs. control” value is listed as “lack of significant differences” and the “blood urea nitrogen (BUN) vs. control” value was “lack of significant differences”. For `O=C(O)c1cc(O)c2cc(-c3cc(C45CC6CC(CC(C6)C4)C5)ccc3O)ccc2c1` [Analog 13, 6-(5-(adamantan-1-yl)-2-hydroxyphenyl)-4-hydroxy-2-naphthoic acid], the “fold increase in antimicrobial activity vs. Analog 10” value in series [2] (MRSA MW2, relative to Analog 10) is 8 fold. For the same compound, the MIC in series [2] (setting [9]) was determined as 4 µg/mL (≈ 9.65 µM). Turning to `COc1ccc(-c2ccc3cc(CO)ccc3c2)cc1C12CC3CC(CC(C3)C1)C2` [Analog 6, (6-(3-(adamantan-1-yl)-4-methoxyphenyl)naphthalen-2-yl)methanol], the antimicrobial activity entry in series [2] is given as “eliminated”. In the case of `COc1ccc(-c2ccc3cc(C(=O)O)ccc3c2)cc1C12CC3CC(CC(C3)C1)C2` [adapalene], in series [4], the growth inhibition entry is given as “not”.
